Data from ChEMBL document CHEMBL5303711, “ECBD screening data for assay EOS300108” (2023).
Calls of active or inactive are those of the source. The rule behind the calls is not given here.

Assay: Cytotoxicity activity against human HepG2 cells assessed by CellTiter-Glo luminescent cell viability assay.
Type: toxicity, cell-based
Set-up: assay stage confirmatory assay, source tissue liver
Settings: HepG2 cells, read-out: IC50 relative

| Structure (SMILES) | CC50 |
| --- | --- |
| O=c1[nH]ccc2c(Br)cccc12 | 8.3 µM (inactive) |
| CN1CCN(S(=O)(=O)c2cccc(C(=O)Nc3nc(-c4ccccc4)cs3)c2)CC1 | 12.5 µM (active) |
| O=c1c2ccccc2sn1-c1nccs1 | 50 µM (inactive) |
| COc1ccc(-n2ccc(C(=O)Nc3cc(Cl)c(=O)n(C)c3)n2)cc1 | 7.7 µM (active) |
| CC(C)N1CCC(NC(=O)CN2CCCN(Cc3ccccc3)c3ccccc32)CC1 | 12.4 µM (active) |
| Cc1n[nH]c(C)c1CC(=O)Nc1cnn([C@@H](C)C2CC2)c1 | 50 µM (inactive) |
| C[C@@H]1CNCCN1S(=O)(=O)c1cccc(Br)c1 | 50 µM (inactive) |
| COC[C@H](C)Nc1cccc(N(C)C(C)C)c1 | 8.6 µM (active) |
| CC1=CCN(C[C@H](O)COc2ccc3c(c2)OCO3)CC1 | 13.5 µM (inactive) |
| Cc1cc(C)nc(-n2ncc(Cl)c(Cl)c2=O)n1 | 3.8 µM (active) |
| CNc1nc(N2CCCO[C@@H](CN)C2)nc2ccccc12 | 6.4 µM (active) |
| CCN1CCC(NC[C@H](C)Oc2ccc(C(C)C)cc2)CC1 | 7.1 µM (active) |
| O=S(=O)(C[C@H]1CCOC1)NC1CCN(Cc2ccc(Cl)cc2)CC1 | 12.9 µM (active) |
| CC(C)c1cnc(NC(=O)N2CC3(CN(C)C(=O)O3)C2)s1 | 12.7 µM (inactive) |
| CN1CCc2nc(C(=O)c3nc4c(s3)CN(C)CC4)sc2C1 | 0.5 µM (active) |
| CCOc1ncccc1C(=O)NCc1nccc2ccccc12 | 3.9 µM (active) |
| CN(C)C(=O)c1cccc(CN(C)c2ccccc2CO)c1 | 10.9 µM (active) |
| Cc1ccc(NC(=O)Cc2ccc(-n3cccc3)cc2)nc1 | 1.6 µM (active) |
| CN(C)CC1(O)CCCN(Cc2cc3ccccc3n2C)C1 (stereo unspecified) | 11.8 µM (active) |
| O=C(Nc1cccc2cccnc12)c1cn2ccccc2n1 | < 0.1 µM (active) |
| Cc1ccccc1C[C@H](C)NCCN1CCC(N(C)C)CC1 | 13.7 µM (inactive) |
| CCOc1cc(F)ccc1NC(=O)c1csc(-c2cnn(C)c2)n1 | 0.4 µM (active) |
| CC(C)c1ccc(NC(=O)c2ccc(N3CCOCC3)nc2)cc1 | 10.5 µM (inactive) |
| CN(C)c1ccc(Cl)cc1NC(=O)c1cn(CCC2CCCCN2)nn1 (stereo unspecified) | 6.8 µM (active) |
| CCc1oc2ccccc2c1CN(C)C(=O)C1(C)CCN(C)CC1 | 12 µM (active) |
| Nc1nc(C2CC(N)C2)cc(N2CCC(OCc3ccccc3)CC2)n1 (stereo unspecified) | 10.8 µM (active) |

| Structure (SMILES) | CC50 |
| --- | --- |
| Cn1nccc1CCNC(=O)c1csc(-c2ccoc2)n1 | 2 µM (active) |
| COc1ccc(OC)c(-c2cc(C(=O)Nc3ccccn3)no2)c1 | 0.8 µM (inactive) |
| C[C@H](O)CN1CCC(CNCc2cccc(C(F)(F)F)c2)CC1 | 15.5 µM (inactive) |
| COc1ccc2oc(C(=O)Nc3ncccc3O)c(C)c2c1 | 47.2 µM (inactive) |
| Cn1ccc(C(=O)Nc2cc(F)ccc2-n2cccn2)cc1=O | 1.1 µM (inactive) |
| COc1cc(C(=O)Nn2cnc3ccccc32)cc(Cl)c1OCC(N)=O | 8.3 µM (inactive) |
| c1ccc(COc2ccc3c(c2)CCNCC3)cc1 | 10.8 µM (active) |
| CCC[C@]1(C)NC(=O)N(Cc2cc(-c3ccccc3)on2)C1=O | 2.4 µM (active) |
| Cc1cc(C)cc(N2CCN(C(=O)c3cnn4ccccc34)CC2=O)c1 | 0.7 µM (active) |
| Fc1ccccc1CC1CCN(C[C@H]2[C@@H]3CNC[C@@H]32)CC1 | 8.8 µM (active) |
| Cc1ccc(NC(=O)c2cc3ccccc3c(=O)[nH]2)cc1 | 50 µM (inactive) |
| O=c1cc(O)c2c(-c3ccc(F)cc3)csc2[nH]1 | 2.7 µM (active) |
| O=C(Cc1cnn(-c2ccccc2)c1)N1CCN(S(=O)(=O)c2ccc3c(c2)OCCCO3)CC1 | 8.6 µM (active) |
| Cc1cc(=O)n2nc(Sc3ncc4ccccn34)sc2n1 | 12.1 µM (active) |
| O=C(NCc1ccc(-n2ccnc2)nc1)[C@@H]1CC(c2ccccc2)=NO1 | 6.3 µM (active) |
| CN(Cc1ccc2c(c1)OCCO2)C(=O)[C@H]1CCCN(S(N)(=O)=O)C1 | 50 µM (inactive) |
| Oc1ccc2[nH]ncc2c1Br | 7.1 µM (active) |
| CC(C)c1cnc(NC(=O)N2CC[C@H](Nc3ccc4nccn4n3)C2)s1 | 3.2 µM (active) |
| Cc1cc(NC(=O)N[C@H]2CCN(CC3CCCC3)C2)cc(N2CCN(C)CC2)c1 | 9.3 µM (active) |
| O=C(Nc1cnn(-c2ccccn2)c1)c1ccc(O)c(Cl)c1 | 50 µM (inactive) |
| CC(=O)c1ccc(S(=O)(=O)Nc2cccc3cccnc23)cc1 | 3.5 µM (active) |
| Fc1ccc(C(CCNC[C@@H]2[C@H]3CNC[C@@H]23)c2ccco2)cc1 (stereo partly specified) | 7.1 µM (active) |
| O=C(Cn1ncc(Cl)c(Cl)c1=O)NCc1ccccc1 | 5.4 µM (active) |
| CN([C@H]1CCN(c2ccccc2F)C1=O)S(=O)(=O)c1cccc2cnccc12 | 4.3 µM (active) |
| COc1ccc(-c2nc(Cn3ncc(Cl)c(Cl)c3=O)co2)cc1 | 11 µM (active) |
| COc1ccccc1OCCNc1ncnc2cc(F)ccc12 | 1.5 µM (active) |

| Structure (SMILES) | CC50 |
| --- | --- |
| C[C@H]1CN(C)c2ccccc2N(Cc2cc3ccccc3c(=O)[nH]2)C1 | 16.9 µM (inactive) |
| c1cc(N2CCC[C@H]2C2CCCCC2)nc(C2CC2)n1 | 11.8 µM (active) |
| O=C(CN1C(=O)COc2ccc(Cl)cc21)N1CCC(c2c[nH]c3ncccc23)CC1 | 8.8 µM (active) |
| Cc1cc2c(=O)nc(-c3cc(OCC(F)F)ccn3)[nH]c2s1 | 2.2 µM (active) |
| COc1ccc(C(N)=O)c(OCc2cn3ccccc3c2C#N)c1 | 10.7 µM (inactive) |
| C#CCNC(=O)c1ccccc1NCc1ccc(C#N)cc1OC | 1 µM (active) |
| C[C@]1(c2cccc(C#N)c2)NC(=O)N(Cc2noc(-c3ccsc3)n2)C1=O | 12.5 µM (inactive) |
| CCC1CN(Cc2ccccc2OCc2cccc(OC)c2)CCN1C (stereo unspecified) | 17.8 µM (inactive) |
| CNC(=O)c1c(N)sc2c1-c1ccccc1C2 | 19.3 µM (inactive) |
| CN[C@H]1CCCN(S(=O)(=O)c2ccc(Cl)cc2F)C1 | 17.1 µM (inactive) |
| O=S(=O)(Nc1cccc2cccnc12)c1ccccc1F | 2.6 µM (active) |
| COc1ncccc1NC(=O)c1n[nH]c2ccccc12 | 0.1 µM (active) |
| CN(C)S(=O)(=O)c1ccc2oc(SCCOc3ccccc3)nc2c1 | 10 µM (active) |
| O=C(Nc1nc(-c2ccc(F)cc2)n[nH]1)c1ccco1 | 3.4 µM (active) |
| O=C(Nc1cccc(Cl)c1O)c1sccc1Br | 0.8 µM (active) |
| CC[C@@](NC(=O)c1csc(-c2ccoc2)n1)(C(N)=O)C(C)C | 5.2 µM (active) |
| O=C(Nc1cccc2cccnc12)c1cccc2cn[nH]c12 | 50 µM (inactive) |
| Cc1nc2ccccc2n1CCN1CCN(CCOc2ccccc2)CC1 | 7.5 µM (active) |
| Cn1c(=O)c2ccc(C(=O)Nc3nc(-c4ccco4)cs3)nc2n(C)c1=O | 10.5 µM (inactive) |
| COc1cc(OC)cc(C(=O)N2CCN(Cn3ncc(Cl)c(Cl)c3=O)CC2)c1 | 23.4 µM (inactive) |
| O=C(Nc1ccccc1O)c1cccc(NC(=O)c2cccs2)c1 | 7.1 µM (active) |
| Cc1cccc2nc(C(=O)Nc3ccc(S(=O)(=O)Nc4nccs4)cc3)cn12 | 1.4 µM (inactive) |
| COc1ccccc1OCC(=O)Nc1nc(-c2ccccn2)cs1 | 2.7 µM (active) |
| COc1ccc(-c2cnc3ccc(N4CCCC4)nn23)cc1OC | 4.3 µM (active) |
